Patent publication US20050054587A1, “Novel therapeutic indication of azithromycin for treatment of non-infective inflamatory diseases” (priority 2001, published 2005)

How the values were obtained:
Type in all cases: in vivo, human
β-glucuronidase = β-glucuronidase activity in serum, fluorimetric; conditions: healthy volunteers; for β-glucuronidase (serum): azithromycin 3×500 mg, baseline 2.88 ± 0.7
Method: (§1) A trial on healthy volunteers was conducted and the influence of azithromycin given in a dosage of 3×500 mg on selected inflammation-relevant parameters was followed up.
(§2) Each subject received two standard 250 mg capsules of azithromycin (Sumamed®, PLIVA Zagreb) on three consecutive days. Immediately before the treatment and 2 h and 30 min, 24 h and 28 days after the third and last dose of azithromycin blood was collected from the cubital vein into EDTA-containing tubes. Aliquots were taken for cell counting, smear preparation, polymorphonuclear cell and serum isolation.
(§3) Glycosidases are enzymes that catalyse hydrolysis of glycosidic bonds of oligosacharides and other glycosides. They are specific to the glycosidic part of substrate molecule. N-acetyl-β-D-glucosaminidase (NAGA) and β-glucuronidase are such enzymes. They are lysosomal enzymes, both located in azurophilic (primary; peroxidase-positive) granules of neutrophils. Since degranulation of neutrophils is present during inflammation, many authors choose these enzymes as markers of degranulation and for estimation of neutrophil reactivity. The catalytic concentration of both enzymes in serum and in neutrophil lysates was determined using the fluorimetric method described by O'Brien et al. (New Engl. J. Med. (1970) 283: 15-20) for NAGA and Glaser & Sly (J. Lab. Clin. Med. (1973) 82: 969) for β-glucuronidase.

sVCAM = assay: Serum sVCAM concentration, ELISA; conditions: healthy volunteers, azithromycin 3×500 mg, baseline 13.59 ± 2.90
Method: as §1, §2
For quantitative determination of serum concentration of human sVCAM, an ELISA kit was used (R&D systems, UK)

[1] = test system: N-acetyl-β-D-glucosaminidase (NAGA); assay: NAGA activity in neutrophil (PMN) lysates, fluorimetric; conditions: healthy volunteers; for NAGA (PMN): azithromycin 3×500 mg, baseline 4.15 ± 01.6
Method: as §1, §2, §3

stimulated neutrophils = assay: fMLP-stimulated neutrophil oxidative burst, luminol chemiluminescence; conditions: healthy volunteers, azithromycin 3×500 mg, baseline 29335 ± 1957
Method: as §1, §2
The generation of reactive oxygen species by activated cells is frequently determined by the measurement of chemiluminescence (CL). The radical species formed react with a photon-producing chemical (e.g. Luminol) and the resulting light emission is measured with a photocell. Chemiluminescence is detectable as a result of the stimulation (e.g. fMLP) of leucocytes and is a measure of their oxidative cytotoxic activity (Allen et al., Biochem. Biophys. Res. Commun. (1972), 47: 679).
The results of the study presented in Table 1 show, that azithromycin inhibits chemiluminescence generated from stimulated neutrophils isolated from the blood of humans treated with azithromycin.

myeloperoxidase (MPO) = assay: MPO enzyme protein by ELISA in neutrophil lysates; conditions: healthy volunteers, azithromycin 3×500 mg, baseline 54.22 ± 12.61
Method: as §1, §2
The activity of MPO was assessed from the intensity of staining of neutrophils in blood smears and in cell lysates by ELISA. After fixation in ethanol-formaldehyde, smears were incubated in a substrate solution containing hydrogen peroxide and benzidine (SIGMA). After incubation, smears were counterstained with Giemsa solution. MPO value positivity_of 100 granulocytes was evaluated and scored from 0 to 4+ on the basis of the intensity of the precipitated dye in cytoplasm. Therefore, the value of the score could be from 0 to 400. Normal values of score range (290-390) were taken from this study before azithromycin administration. MPO activity was also evaluated on the digital image of smear taken with a digital camera under the high magnification (×1000) of light microscope. MPO activities in blood smear neutrophils decreased from 2 h and 30 min to 24 h after the last azithromycin dose and returned to baseline after 28 days (Table 1). The change in neutrophil enzyme protein followed the same pattern as that in intracellular enzyme activity, decreasing from 2 h and 30 min to 24 h after the last dose of azithromycin and returning to baseline after 28 days. […] Degranulation presented with lower MPO neutrophil density determined_with cytochemistry was associated with lower MPO ELISA concentrations in neutrophil lysates.
Proteins in PMN samples were determined according to the method of Bradford (Anal. Biochem. (1976) 72: 248-254) using bovine serum albumin as a standard.

granulocytes = assay: Apoptotic cells by morphology of blood smears; conditions: healthy volunteers, azithromycin 3×500 mg, baseline 0.333 ± 0.655
Method: as §1, §2
Three-day administration of azithromycin exerted a delayed pro-apoptotic effect on granulocytes, as indicated by morphology of blood smears. The number of apoptotic cells counted increased continuously after the three day dosing with azithromycin, achieving statistical significance 28 days after the last dose.

IL-6 = assay: Serum IL-6 concentration, ELISA; conditions: healthy volunteers, azithromycin 3×500 mg, baseline 3.4 ± 1.05
Method: as §1, §2
Cytokine and chemokine concentrations were determined using ELISA kits. […] Rapid and pronounced decreases in the plasma concentrations of the neutrophil-stimulating chemokine, IL-8, and GR0-α were observed 2 h and 30 min and 24 h after the last dose of azithromycin (Table 1. The concentration of IL-8 returned essentially to baseline after 28 days, while that of GRO-[…] was decreased at this time.

glutathione reductase = assay: Glutathione reductase activity in PMN lysates (BIOXYTECH GR-340); conditions: healthy volunteers, azithromycin 3×500 mg, baseline 9.63 ± 1.16
Method: as §1, §2
Glutathione reductase is an ubiquitous enzyme that catalyses the reduction of oxidised glutathione (GSSG) to glutathione (GSH). Glutathione reductase is essential for the glutathione redox cycle that maintains adequate levels of reduced cellular GSH. GSH serves as an antioxidant, reacting with free radicals and organic peroxides, in amino acid transport, and as a substrate for the GSHPx and glutathione S-transferases in the detoxification of organic peroxides and metabolism of xenobiotics. Glutathione reductase was determined using the BIOXYTECH® GR-340™ colorimetric assay for glutathione reductase (OXIS International, Inc.). Briefly, oxidation of NADPH to NADP^+ is catalysed by a limiting concentration of glutathione reductase.

CC[C@H]1OC(=O)[C@H](C)[C@@H](O[C@H]2C[C@@](C)(OC)[C@@H](O)[C@H](C)O2)[C@H](C)[C@@H](O[C@@H]2O[C@H](C)C[C@H](N(C)C)[C@H]2O)[C@](C)(O)C[C@@H](C)CN(C)[C@H](C)[C@@H](O)[C@]1(C)O [azithromycin, 9-deoxo-9-dihydro-9a-methyl-9a-aza-9a-homoerythromycin A]
change of activity of β-glucuronidase in serum (β-glucuronidase; 3×500 mg, during the first 24 hours after the last dose): did not show any changes
β-glucuronidase (serum) (β-glucuronidase; 2 h and 30 min after last dose): 3.01 ± 0.6 µmol/L/min
β-glucuronidase (serum) (β-glucuronidase; 24 hours after last dose): 2.95 ± 0.5 µmol/L/min
β-glucuronidase (serum) (β-glucuronidase; 28 days after last dose): 3.93 ± 1.2 µmol/L/min
sV-CAM (serum) (sVCAM; 2 h and 30 min after last dose): 12.21 ± 4.12 ng/mL
sV-CAM (serum) (sVCAM; 24 hours after last dose): 10.29 ± 2.12 ng/mL
sV-CAM (serum) (sVCAM; 28 days after last dose): 10.74 ± 2.05 ng/mL
decrease in NAGA in granulocytes ([1]; 3×500 mg, 2 h and 30 min after the last dose, vs initial values): about 70%
NAGA activity in PMN lower compared to initial values ([1]; 3×500 mg, 24 hours after the last dose): about 40%
NAGA activity in PMN increase from the 2 h and 30 min value ([1]; 3×500 mg, 24 hours later): about 30%
activity of NAGA (PMN) increased over the initial values ([1]; 3×500 mg, after 28 days): 40%
NAGA (PMN) ([1]; 2 h and 30 min after last dose): 1.13 ± 0.72 nmol × 10^−6 cells × min^−1
NAGA (PMN) ([1]; 24 hours after last dose): 2.62 ± 1.6 nmol × 10^−6 cells × min^−1
NAGA (PMN) ([1]; 28 days after last dose): 5.95 ± 3.7 nmol × 10^−6 cells × min^−1
OXIDATIVE BURST (PMN) fMLP-luminol (stimulated neutrophils; 2 h and 30 min after last dose): 14774 ± 1175 A.U.
OXIDATIVE BURST (PMN) fMLP-luminol (stimulated neutrophils; 24 hours after last dose): 5053 ± 3804 A.U.
OXIDATIVE BURST (PMN) fMLP-luminol (stimulated neutrophils; 28 days after last dose): 9879 ± 13880 A.U.
myeloperoxidase (PMN) (myeloperoxidase (MPO); 2 h and 30 min after last dose): 70.85 ± 19.91 μg/mg protein
myeloperoxidase (PMN) (myeloperoxidase (MPO); 24 hours after last dose): 26.74 ± 2.51 μg/mg protein
myeloperoxidase (PMN) (myeloperoxidase (MPO); 28 days after last dose): 70.01 ± 17.62 μg/mg protein
APOPTOSIS (WBC) (granulocytes; 2 h and 30 min after last dose): 0.833 ± 1.029 apoptopic cells/1000 WBC
APOPTOSIS (WBC) (granulocytes; 24 hours after last dose): 1.417 ± 1.240 apoptopic cells/1000 WBC
APOPTOSIS (WBC) (granulocytes; 28 days after last dose): 2.583 ± 2.02 apoptopic cells/1000 WBC
IL-6 (serum) (IL-6; 2 h and 30 min after last dose): 2.7 ± 1.49 pg/mL
IL-6 (serum) (IL-6; 24 hours after last dose): 2.5 ± 1.48 pg/mL
IL-6 (serum) (IL-6; 28 days after last dose): 1.15 ± 0.61 pg/mL
GLUTATHION REDUCTASE (PMN) (glutathione reductase; 2 h and 30 min after last dose): 7.39 ± 1.23 mU/10^6PMN
GLUTATHION REDUCTASE (PMN) (glutathione reductase; 24 hours after last dose): 7.91 ± 0.87 mU/10^6PMN
GLUTATHION REDUCTASE (PMN) (glutathione reductase; 28 days after last dose): 11.27 ± 2.24 mU/10^6PMN
